Measured values: article PMC10763615, “Identification and engineering of potent cyclic peptides with selective or promiscuous binding through biochemical profiling and bioinformatic data analysis” (RSC Chemical Biology, 2023)
Read-outs that look alike come from different tables or passages of the source. Positions of bridges follow the written chain, without caps; N, C: chain ends. Residues, ends and D or L forms follow the SMILES beside them.

Assays:
Assay type in all cases: binding
FGF-R3C ECD = target: T1, FGF-R3C ECD (Homo sapiens, UniProt P22607); assay: biochemical; design: DNA constructs for the extracellular domain (ECD) of human FGF-; HPC4 (C); made in house; host or cells: HEK 293-6E
T1 sequence (P22607 23-375 limits assumed): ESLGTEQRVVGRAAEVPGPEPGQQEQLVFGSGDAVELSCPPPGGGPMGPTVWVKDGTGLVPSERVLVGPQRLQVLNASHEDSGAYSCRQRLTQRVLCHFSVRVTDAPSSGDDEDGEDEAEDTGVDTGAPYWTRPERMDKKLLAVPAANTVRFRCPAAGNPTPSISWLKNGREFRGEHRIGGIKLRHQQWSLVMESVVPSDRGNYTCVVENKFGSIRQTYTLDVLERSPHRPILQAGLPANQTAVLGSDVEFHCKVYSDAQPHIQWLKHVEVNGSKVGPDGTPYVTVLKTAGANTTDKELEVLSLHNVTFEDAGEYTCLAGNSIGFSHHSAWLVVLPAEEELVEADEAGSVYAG
In short: (§1)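 Streptavidin biosensors carrying biotinylated FGF receptor ECD were immersed in peptide (~1 μM for crude single-point runs, a concentration series for purified peptides) and then in peptide-free buffer. KD was obtained by fitting the BLI association and dissociation curves.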

FGF-R1C ECD = target: T2, FGF-R1C ECD (Homo sapiens, UniProt P11362); assay: biochemical; design: DNA constructs for the extracellular domain (ECD) of human FGF-; HPC4 (C); made in house; host or cells: HEK 293-6E
T2 sequence (P11362 22-376 limits assumed): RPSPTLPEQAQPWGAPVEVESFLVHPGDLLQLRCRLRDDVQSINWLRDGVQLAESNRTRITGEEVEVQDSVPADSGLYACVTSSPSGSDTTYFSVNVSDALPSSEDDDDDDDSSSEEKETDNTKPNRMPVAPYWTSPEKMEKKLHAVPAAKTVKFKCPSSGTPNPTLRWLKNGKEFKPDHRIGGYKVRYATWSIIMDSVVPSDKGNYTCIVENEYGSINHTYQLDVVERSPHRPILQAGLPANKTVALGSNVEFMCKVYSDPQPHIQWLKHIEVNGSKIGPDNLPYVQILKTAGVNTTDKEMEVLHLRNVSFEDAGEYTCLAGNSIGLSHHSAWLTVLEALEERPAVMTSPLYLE
In short: as §1

FGF-R4 ECD = target: T3, FGF-R4 ECD (Homo sapiens, UniProt P22455); assay: single concentration BLI of crude peptides; conditions: read-out: KD (4)
T3 construct: DNA constructs for the extracellular domain (ECD) of human FGF-; HPC4 (C); made in house; host or cells: HEK 293-6E
T3 sequence (P22455 22-369 limits assumed): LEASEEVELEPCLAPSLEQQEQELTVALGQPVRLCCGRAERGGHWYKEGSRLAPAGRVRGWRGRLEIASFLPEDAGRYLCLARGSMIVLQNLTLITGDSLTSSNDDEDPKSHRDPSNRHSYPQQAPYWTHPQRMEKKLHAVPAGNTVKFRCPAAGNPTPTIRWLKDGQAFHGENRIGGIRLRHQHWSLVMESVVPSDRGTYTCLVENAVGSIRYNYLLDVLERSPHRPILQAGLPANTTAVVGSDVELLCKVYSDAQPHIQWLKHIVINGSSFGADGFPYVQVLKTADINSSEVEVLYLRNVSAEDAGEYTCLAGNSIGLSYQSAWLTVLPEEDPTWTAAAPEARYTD
In short: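 BLI, streptavidin sensors loaded with biotinylated receptor ECD. Single-point: ~1 μM crude peptide, PBS pH7.4/0.05% Tween-20/0.01% BSA; association then dissociation in buffer. KD corrected for UPLC-CAD-determined concentration.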

[1] = crude T18 selection 1 (1:1:1) peptides, single concentration BLI (Table S4)
[2] = crude NNK peptides, single concentration BLI (Table S3)

Compound	Kd (FGF-R3C ECD) [µM]	Kd (FGF-R1C ECD) [µM]	Kd (FGF-R4 ECD; [1]) [µM]	Kd (FGF-R4 ECD; [2]) [µM]
CSCC[C@H](NC(C)=O)C(=O)N[C@H]1CSSC[C@@H](C(=O)NCC(=O)N[C@@H](CO)C(=O)NCC(=O)N[C@@H](CO)C(=O)N[C@@H](CCC(=O)O)C(=O)N[C@@H](CCC(=O)O)C(=O)NCC(=O)N[C@@H](CO)C(=O)NCC(=O)N[C@@H](CO)C(=O)N[C@@H](CC(=O)O)C(=O)N[C@@H](Cc2ccc(O)cc2)C(=O)N[C@@H](CCCCN)C(=O)N[C@@H](CC(=O)O)C(=O)N[C@@H](CC(=O)O)C(=O)N[C@@H](CC(=O)O)C(=O)N[C@@H](CC(=O)O)C(=O)N[C@@H](CCCCN)C(N)=O)NC(=O)[C@H](CCCCN)NC(=O)[C@H](CCCCN)NC(=O)[C@H](CCC(N)=O)NC(=O)[C@H](Cc2ccc(O)cc2)NC(=O)[C@H](CCCCN)NC(=O)[C@H](Cc2ccc(O)cc2)NC(=O)[C@H](Cc2c[nH]c3ccccc23)NC(=O)[C@H](CC(C)C)NC(=O)[C@H](C(C)C)NC(=O)[C@H]([C@@H](C)O)NC(=O)[C@H](Cc2ccc(O)cc2)NC1=O (Ac-MCYTVLWYKYQKKCGSGSEEGSGSDYKDDDDK-NH2; disulfide 2-14)	> 10	> 10	0.001	–
CSCC[C@H](NC(C)=O)C(=O)N[C@H]1CSSC[C@@H](C(=O)NCC(=O)N[C@@H](CO)C(=O)NCC(=O)N[C@@H](CO)C(=O)N[C@@H](CC(=O)O)C(=O)N[C@@H](Cc2ccc(O)cc2)C(=O)N[C@@H](CCCCN)C(=O)N[C@@H](CC(=O)O)C(=O)N[C@@H](CC(=O)O)C(=O)N[C@@H](CC(=O)O)C(=O)N[C@@H](CC(=O)O)C(=O)N[C@@H](CCCCN)C(N)=O)NC(=O)[C@H](Cc2ccc(O)cc2)NC(=O)[C@H](C(C)C)NC(=O)[C@H](CC(C)C)NC(=O)[C@H](C(C)C)NC(=O)[C@H](CCCCN)NC(=O)[C@H](CC(N)=O)NC(=O)[C@H](CC(C)C)NC(=O)[C@H](Cc2ccccc2)NC(=O)[C@H](CC(N)=O)NC(=O)[C@H](Cc2ccc(O)cc2)NC(=O)[C@H](Cc2ccc(O)cc2)NC1=O (Ac-MCYYNFLNKVLVYCGSGSDYKDDDDK-NH2; disulfide 2-14)	> 10	> 10	0.008	–
CSCC[C@H](NC(C)=O)C(=O)N[C@@H](CCSC)C(=O)N[C@@H](CO)C(=O)N[C@@H](Cc1c[nH]cn1)C(=O)N[C@H]1CSSC[C@@H](C(=O)NCC(=O)N[C@@H](CO)C(=O)NCC(=O)N[C@@H](CO)C(=O)N[C@@H](CC(=O)O)C(=O)N[C@@H](Cc2ccc(O)cc2)C(=O)N[C@@H](CCCCN)C(=O)N[C@@H](CC(=O)O)C(=O)N[C@@H](CC(=O)O)C(=O)N[C@@H](CC(=O)O)C(=O)N[C@@H](CC(=O)O)C(=O)N[C@@H](CCCCN)C(N)=O)NC(=O)[C@H](CC(C)C)NC(=O)[C@H](CC(C)C)NC(=O)[C@H](C(C)C)NC(=O)[C@H](CCCCN)NC(=O)[C@H](Cc2ccccc2)NC(=O)[C@H](CC(C)C)NC(=O)[C@H](Cc2c[nH]c3ccccc23)NC1=O (Ac-MMSHCWLFKVLLCGSGSDYKDDDDK-NH2; disulfide 5-13)	> 10	> 10	–	0.239
CC[C@H](C)[C@@H]1NC(=O)[C@H](Cc2ccc(O)cc2)NC(=O)[C@H](C)NC(=O)[C@H](CC(C)C)NC(=O)[C@H](Cc2c[nH]c3ccccc23)NC(=O)[C@@H](NC(=O)[C@H](CCCCN)NC(=O)[C@@H](NC(=O)[C@H](CCSC)NC(=O)[C@H](CCSC)NC(C)=O)C(C)C)CSSC[C@@H](C(=O)NCC(=O)N[C@@H](CO)C(=O)NCC(=O)N[C@@H](CO)C(=O)N[C@@H](CC(=O)O)C(=O)N[C@@H](Cc2ccc(O)cc2)C(=O)N[C@@H](CCCCN)C(=O)N[C@@H](CC(=O)O)C(=O)N[C@@H](CC(=O)O)C(=O)N[C@@H](CC(=O)O)C(=O)N[C@@H](CC(=O)O)C(=O)N[C@@H](CCCCN)C(N)=O)NC(=O)[C@H]([C@@H](C)O)NC(=O)[C@H](CCCNC(=N)N)NC1=O (Ac-MMVKCWLAYIRTCGSGSDYKDDDDK-NH2; disulfide 5-13)	> 10	> 10	–	> 10
